Experimental data from paper PMC5827532, “Triphenylphosphonium Moiety Modulates Proteolytic Stability and Potentiates Neuroprotective Activity of Antioxidant Tetrapeptides in Vitro” (Frontiers in Pharmacology, 2018).
Where two headings read alike, the source gives them in different places.

Legend:
trypsin = target: T1, trypsin (Sus scrofa, UniProt P00761); experiment: Tryptic cleavage of oligopeptides followed by reversed-phase HPLC; type: in vitro ADME, porcine; details: trypsin 5 μg/mL, PBS pH 7.4; for half-life at 0.5 mg/mL: pig, oligopeptide 0.5 mg/mL, read-out: 50% degradation rate (DR50)
T1 construct: purchased PanEco company (Russia); host or cells: porcine pancreas
T1 sequence (P00761 9-231): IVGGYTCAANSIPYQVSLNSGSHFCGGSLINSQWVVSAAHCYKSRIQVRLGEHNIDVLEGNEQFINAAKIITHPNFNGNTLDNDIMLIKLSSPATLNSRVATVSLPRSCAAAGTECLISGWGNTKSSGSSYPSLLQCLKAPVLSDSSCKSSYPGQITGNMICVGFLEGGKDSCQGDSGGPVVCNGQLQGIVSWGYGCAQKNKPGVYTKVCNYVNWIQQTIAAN
Protocol: The reaction mixture containing an oligopeptide (0.5 mg/mL) and trypsin (5 μg/mL) in phosphate buffered saline (PBS, pH 7.4) was incubated for different time intervals, and aliquots of digestion products were collected for reversed-phase high-performance liquid chromatography (HPLC). HPLC analysis was carried out on a Dionex UltiMate 3000 system (Thermo Scientific) using a Kromasil C18 column, 5 μm, 4.6 mm × 150 mm (AkzoNobel). Mobile phase contained (A) acetonitrile with 0.1% trifluoroacetic acid, (B) milli-Q water with 0.1% trifluoroacetic acid. Gradient scheme was as follows, 0–10 min: from 100% A to 100% B, 10–20 min: 100% A to 100% B, 20–25 min: 100% B. Flow rate was 0.5 mL/min; injection volume was 10 μL. The detection was performed at wavelengths of 220 and 260 nm. Chromatographic data were collected and treated with the aid of Chromeleon 6.80 software (Thermo Scientific). Peak height of the uncleaved oligopeptides was measured to calculate remaining concentration of the oligopeptides after tryptic cleavage. Concentration values were presented as mean ± SD (n = 3).
Enzymatic cleavage of the oligopeptides was performed in PBS solution using pancreatic trypsin as a pharmacologically relevant endopeptidase ([Vlieghe et al., 2010]; [Danial et al., 2012]). To compare proteolytic resistance of the initial and TPP-modified oligopeptides, the reaction conditions were optimized to provide a relatively slow kinetics. The concentration of uncleaved oligopeptides was detected by means of HPLC. In the absence of trypsin, both the unmodified tetrapeptides and TPP derivatives were stable during at least 48 h incubation at ambient temperature.

PC-12 cells [1] = test system: PC-12 cells
Protocol: (§1) PC-12 cells were subjected to oxidative damage by CoCl2, L-glutamic acid, or menadione and treated with the oligopeptides as follows. Briefly, the pre-grown cells were seeded in a 96-well plate at a density of 60 000 cells per well and cultured overnight in FBS-containing α-MEM. Next day, the medium was replaced by a fresh one without FBS, and further manipulations were performed in FBS-free medium. The oxidative agents and oligopeptides were supplemented to the medium in three ways: (i) the cells were pre-cultured in the presence of oligopeptides for 24 h, then the medium was replaced by a fresh one supplemented with a damaging factor and the cells were further cultured with the factor for 24 h (CoCl2, L-glutamic acid) or 3 h (menadione) (‘pretreatment’); (ii) the damaging factor and oligopeptide were added together to cells and cultured for 24 h (CoCl2, L-glutamic acid) or 3 h (menadione) followed by medium replacement (‘cotreatment’); (iii) following treatment with menadione, the cells were additionally cultured with the oligopeptides for 24 h (‘posttreatment’). The concentration of compounds was as follows: oligopeptides 5 mM, CoCl2 2.5 mM, L-glutamic acid 50 mM, menadione 25 μM.
(§2) Eventually, viability of the treated cells was evaluated with the use of MTS assay (Promega) on an Infinite M200 PRO microplate analyzer (TECAN). The cell viability was presented as a percentage of that of the control cells cultured in the absence of compounds (100% viability).

[2] = Cytoprotection against L-glutamic acid-induced damage (MTS assay); details: rat
Protocol: as §1, §2

[3] = test system: prostate cancer (PC-3) cells; details: same supplementation; ref Akhmadishina et al., 2017; cited from earlier work
PC-12 cells [4] = experiment: Cytoprotection against menadione-induced damage (MTS assay); details: for protective effect: pretreatment 24 h, 5 mM, menadione 25 μM
Protocol: (§3) PC-12 cells were subjected to oxidative damage by CoCl2, L-glutamic acid, or menadione and treated with the oligopeptides as follows. Briefly, the pre-grown cells were seeded in a 96-well plate at a density of 60 000 cells per well and cultured overnight in FBS-containing α-MEM. Next day, the medium was replaced by a fresh one without FBS, and further manipulations were performed in FBS-free medium.
as §2

[5] = same reaction; ref Akhmadishina et al., 2017; cited from earlier work
PC-12 cells [6] = experiment: H2O2-induced oxidative stress in cells (DCFDA fluorescence); type: cell-based, rat; details: 5 mM, 1 h, 100 mM H2O2, HBSS
Protocol: PC-12 cells were seeded in a 96-well plate and allowed to form a subconfluent monolayer. The cells were washed with Hank’s balanced salt solution (HBSS), pre-stained with 20 μM DCFDA and rewashed with HBSS two times. The oxidative stress in the stained cells was induced by incubating them in HBSS solution containing 100 mM H2O2 for 1 h in CO2-incubator. The synthesized oligopeptides or glutathione were added to the extracellular solution in the concentration range from 1 to 10 mM in HBSS and incubated for 1 h. The bottom fluorescent signal was acquired from the treated cells on an Infinite M200PRO microplate analyzer (TECAN) at λex = 488 nm and λem = 535 nm.

PC-12 cells [7] = experiment: Cytoprotection against L-glutamic acid-induced damage (MTS assay); details: 50 mM LGlu
Protocol: as §1, §2

[8] = test system: human skin fibroblasts (HSF); experiment: MTT proliferation (cytotoxicity) assay; type: cell-based
Protocol: (§4) PC-12 rat pheochromocytoma cell line (ATTC) and human skin fibroblasts (HSF) were used. HSF were isolated as detailed in ([Tsepaeva et al., 2017]). The cells were cultured aseptically in α-MEM containing 10% fetal bovine serum (FBS), 2 mM L-glutamine, 100 U/mL penicillin and 100 μg/mL streptomycin at 37°C in humidified air atmosphere with 5% CO2.
(§5) The cytotoxicity of the oligopeptides was evaluated in the concentration range from 1 μM to 3.2 mM by means of the MTT proliferation assay in 96-well microplates as described in [Tsepaeva et al. (2017)]. The cell viability was presented as a percentage of control cells grown without compounds (100% viability value). Half-maximal inhibitory concentrations (IC50) were calculated from cell viability curves using OriginPro 8.0 software.

Dynamic light scattering = type: physicochemical; details: data not shown
PC-12 cells [9] = experiment: MTT proliferation (cytotoxicity) assay; type: cell-based, rat; details: over the whole concentration range (1 μM to 3.2 mM)
Protocol: as §4, §5

[10] = Fenton-like CoCl2/H2O2 reaction, ROS detected with DCFDA probe
Protocol: Fenton-like reaction was initiated by mixing 0.2 mM cobalt chloride (CoCl2) and 22 mM hydrogen peroxide (H2O2) in PBS and carried out for 60 min in the presence of or without a serially diluted oligopeptide. ROS generated in the Fenton reaction were detected by using DCFDA fluorescent probe (5 μM) at λex = 488 nm and λem = 535 nm. The effect of oligopeptides was measured as a percentage of ROS generation rate in the control reaction without effectors (100%) ([Akhmadishina et al., 2017]).

[11] = Cytoprotection against menadione-induced damage (MTS assay); details: rat, PC-12 cells
Protocol: as §3, §2

Q: With `N=C(N)NCCC[C@H](NC(=O)[C@@H](N)Cc1ccc(O)cc1)C(=O)N[C@@H](Cc1ccccc1)C(=O)N[C@@H](CCCCN)C(N)=O` [YRFK-NH2] as the compound, how does the half-life at 0.5 mg/mL (trypsin; isolated enzyme trypsin) read?
A: The half-life at 0.5 mg/mL was about 6.17 h.

Q: Which “cell viability, damaging factor alone” value (PC-12 cells [1]; CoCl2 2.5 mM, 24 h) does the source give for `[Cl-].[Cl-].[Co+2]` [CoCl2, cobalt (II) chloride] here?
A: Its value is 55%.

Q: For `N[C@@H](CCC(=O)O)C(=O)O` [^LGlu, L-glutamic acid], which viability at 24 h, 50 mM [2] is on record?
A: The viability at 24 h, 50 mM was 37.1%.

Q: For `N[C@@H](CCC(=O)N[C@@H](CS)C(=O)NCC(=O)O)C(=O)O` [GSH, γ-Glu-Cys-Gly], which effect on proliferation [3] is on record?
A: Its effect on proliferation is “greatly stimulated proliferation”.

Q: What about the “effect on cell damage” value (PC-12 cells [1]; cotreatment, 5 mM, CoCl2 2.5 mM) of the same compound?
A: Its value is “insignificantly diminished cell damage”.

Q: And the protective effect (PC-12 cells [1]; pretreatment 24 h, 5 mM, CoCl2 2.5 mM)?
A: Its protective effect is “did not exhibit a protective effect”.

Q: And the viability at 5000 µM (PC-12 cells [4]; Rattus norvegicus, PC-12, 24 h, read-out: cell viability)?
A: The viability at 5000 µM was 32%.

Q: And the protective effect (PC-12 cells [4])?
A: The protective effect was “not when applied prior to the treatment”.

Q: What about the EC50 [5] of the same compound?
A: The EC50 was 544 ± 39 µM.

Q: And the “effect on DCFDA signal” value (PC-12 cells [6])?
A: Its value is “almost completely decreased the signal”.

Q: And the protective effect (PC-12 cells [7]; 5 mM)?
A: Its protective effect is “relatively low protective effect”.

Q: What does the source list for `N=C(N)NCCC[C@H](NC(=O)[C@H](Cc1ccc(O)cc1)NC(=O)CC[P+](c1ccccc1)(c1ccccc1)c1ccccc1)C(=O)N[C@@H](Cc1ccccc1)C(=O)N[C@@H](CCCCN)C(N)=O` [TPP-3-YRFK-NH2]?
A: half-life at 0.5 mg/mL (trypsin; pancreatic trypsin in PBS): ~0.767 h; extent of cleavage before plateau (trypsin): ~80%

Q: Which “concentration at which cell proliferation was decreased” value ([8]; effect disappeared in lower and higher concentration ranges) does the source give for `N=C(N)NCCC[C@H](NC(=O)[C@H](Cc1ccc(O)cc1)NC(=O)CCCCC[P+](c1ccccc1)(c1ccccc1)c1ccccc1)C(=O)N[C@@H](Cc1ccccc1)C(=O)N[C@@H](CCCCN)C(N)=O` [TPP-6-YRFK-NH2] here?
A: The value was “around 100 μM”.

Q: And the half-life at 0.5 mg/mL (trypsin; pancreatic trypsin in PBS)?
A: The half-life at 0.5 mg/mL was about 1.17 h.

Q: And the “time during which cleavage was initially retarded” value (trypsin)?
A: Its value is “approximately 60 min”.

Q: And the cell viability (PC-12 cells [1]; rat)?
A: The cell viability was about 126%.

Q: And the aggregative properties (Dynamic light scattering)?
A: The aggregative properties was “formed well-defined submicron aggregates”.

Q: What about the increase of proliferation (PC-12 cells [9]) of the same compound?
A: The increase of proliferation was “up to 20%”.

Q: What about the “concentrations at which the inhibitory effect toward the reaction was observed” value ([10]; 0.2 mM CoCl2, 22 mM H2O2, PBS) of the same compound?
A: Its value is over 250 µM.

Q: What about the EC50 ([10]; ROS generation in CoCl2/H2O2 reaction, read-out: half-maximal inhibitory concentration (EC50)) of the same compound?
A: The EC50 was 500 ± 25 µM.

Q: Which half-life at 0.5 mg/mL (trypsin; isolated enzyme trypsin) does the source give for `NCCCC[C@H](NC(=O)[C@H](Cc1ccccc1)NC(=O)[C@@H](CCCN=C(N)N)NC(=O)[C@@H](N)Cc1ccc(O)cc1)C(N)=O` [YrFK-NH2] here?
A: The half-life at 0.5 mg/mL was about 14.6 h.

Q: Which “half-maximal inhibition of proliferation” value ([8]; MTT, 3 days) does the source give for `N=C(N)NCCC[C@@H](NC(=O)[C@H](Cc1ccc(O)cc1)NC(=O)CCCCC[P+](c1ccccc1)(c1ccccc1)c1ccccc1)C(=O)N[C@@H](Cc1ccccc1)C(=O)N[C@@H](CCCCN)C(N)=O` [TPP-6-YrFK-NH2] here?
A: The value was “millimolar concentrations”.

Q: And the “reaction time without any degradation” value (trypsin)?
A: Its value is “at least 17 h”.

Q: What about the aggregative properties (Dynamic light scattering) of the same compound?
A: The aggregative properties was “formed well-defined submicron aggregates”.

Q: What about the protective effect (PC-12 cells [4]) of the same compound?
A: Its protective effect is “effectively prevented cell damage”.

Q: And the protective effect (PC-12 cells [7]; pretreatment, supplemented 24 h prior to damage)?
A: The protective effect was “completely prevented cell damage”.

Q: For `CC1=CC(=O)c2ccccc2C1=O` [Men, menadione], which viability at 3 h, 25 μM [11] is on record?
A: The viability at 3 h, 25 μM was about 17%.
